One data set concerns NCI-H1975. Nature of the data set: Antiproliferative activity against human NCI-H1975 cells harboring EGFR L858R/T790M mutant assessed as inhibition of cell growth incubated for 72 hrs under hypoxia condition by SRB assay. It counts as functional, cell-based. Particulars: NCI-H1975, 72 h.
Data set [1] in a line: Ratio of IC50 for antiproliferative activity against human NCI-H1975 cells harboring EGFR L858R/T790M mutant under normoxia condition to IC50 for antiproliferative activity against human NCI-H1975 cells harboring EGFR L858R/T790M mutant under hypoxia condition. It counts as functional.
For a further data set, the system named is HCC827. Nature of the data set: Antiproliferative activity against human HCC827 cells harboring EGFR del19 mutant assessed as inhibition of cell growth incubated for 72 hrs under hypoxia condition by SRB assay. It counts as functional, cell-based. Particulars: HCC827, 72 h.
The target of data set [2] is Fibroblast growth factor receptor 1 (Homo sapiens) (UniProt P11362). Nature of the data set: Inhibition of FGFR1 (unknown origin) at 1 uM relative to control.
Fibroblast growth factor receptor 1 (Homo sapiens), sequence (P11362 22-822 limits assumed): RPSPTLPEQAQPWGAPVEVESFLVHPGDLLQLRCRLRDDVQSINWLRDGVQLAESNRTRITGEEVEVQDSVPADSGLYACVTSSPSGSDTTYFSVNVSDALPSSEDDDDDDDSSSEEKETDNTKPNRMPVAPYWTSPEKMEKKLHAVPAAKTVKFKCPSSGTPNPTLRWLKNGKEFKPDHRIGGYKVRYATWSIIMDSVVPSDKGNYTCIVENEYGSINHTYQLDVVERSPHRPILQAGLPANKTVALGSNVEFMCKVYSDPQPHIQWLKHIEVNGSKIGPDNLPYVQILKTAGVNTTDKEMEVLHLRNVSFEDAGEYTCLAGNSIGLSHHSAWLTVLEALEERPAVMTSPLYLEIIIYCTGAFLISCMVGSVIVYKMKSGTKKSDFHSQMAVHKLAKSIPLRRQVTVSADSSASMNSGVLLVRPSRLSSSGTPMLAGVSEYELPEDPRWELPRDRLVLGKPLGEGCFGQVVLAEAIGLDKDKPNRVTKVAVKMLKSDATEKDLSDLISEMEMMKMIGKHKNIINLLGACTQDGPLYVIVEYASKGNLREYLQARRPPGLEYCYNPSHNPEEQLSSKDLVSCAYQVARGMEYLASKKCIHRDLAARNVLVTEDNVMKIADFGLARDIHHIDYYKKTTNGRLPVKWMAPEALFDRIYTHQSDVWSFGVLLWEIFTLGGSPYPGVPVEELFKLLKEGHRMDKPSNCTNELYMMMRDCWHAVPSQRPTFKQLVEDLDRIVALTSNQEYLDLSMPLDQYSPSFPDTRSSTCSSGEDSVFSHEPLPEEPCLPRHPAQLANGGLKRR
The target in data set [3] is Tyrosine-protein kinase SYK (Homo sapiens) (UniProt P43405). Nature of the data set: Inhibition of SYK (unknown origin) at 1 uM relative to control.
Data set [4] addresses High affinity nerve growth factor receptor (Homo sapiens) (UniProt P04629). Nature of the data set: Inhibition of TRKA (unknown origin) at 1 uM relative to control.
Data set [5] concerns the target Proto-oncogene tyrosine-protein kinase Src (Homo sapiens) (UniProt P12931). As to the kind of experiment: Inhibition of SRC (unknown origin) at 1 uM relative to control.
The target of data set [6] is ALK tyrosine kinase receptor (Homo sapiens) (UniProt Q9UM73). Nature of the data set: Inhibition of ALK (unknown origin) at 1 uM relative to control.
ALK tyrosine kinase receptor (Homo sapiens), sequence (Q9UM73 19-1620 limits assumed): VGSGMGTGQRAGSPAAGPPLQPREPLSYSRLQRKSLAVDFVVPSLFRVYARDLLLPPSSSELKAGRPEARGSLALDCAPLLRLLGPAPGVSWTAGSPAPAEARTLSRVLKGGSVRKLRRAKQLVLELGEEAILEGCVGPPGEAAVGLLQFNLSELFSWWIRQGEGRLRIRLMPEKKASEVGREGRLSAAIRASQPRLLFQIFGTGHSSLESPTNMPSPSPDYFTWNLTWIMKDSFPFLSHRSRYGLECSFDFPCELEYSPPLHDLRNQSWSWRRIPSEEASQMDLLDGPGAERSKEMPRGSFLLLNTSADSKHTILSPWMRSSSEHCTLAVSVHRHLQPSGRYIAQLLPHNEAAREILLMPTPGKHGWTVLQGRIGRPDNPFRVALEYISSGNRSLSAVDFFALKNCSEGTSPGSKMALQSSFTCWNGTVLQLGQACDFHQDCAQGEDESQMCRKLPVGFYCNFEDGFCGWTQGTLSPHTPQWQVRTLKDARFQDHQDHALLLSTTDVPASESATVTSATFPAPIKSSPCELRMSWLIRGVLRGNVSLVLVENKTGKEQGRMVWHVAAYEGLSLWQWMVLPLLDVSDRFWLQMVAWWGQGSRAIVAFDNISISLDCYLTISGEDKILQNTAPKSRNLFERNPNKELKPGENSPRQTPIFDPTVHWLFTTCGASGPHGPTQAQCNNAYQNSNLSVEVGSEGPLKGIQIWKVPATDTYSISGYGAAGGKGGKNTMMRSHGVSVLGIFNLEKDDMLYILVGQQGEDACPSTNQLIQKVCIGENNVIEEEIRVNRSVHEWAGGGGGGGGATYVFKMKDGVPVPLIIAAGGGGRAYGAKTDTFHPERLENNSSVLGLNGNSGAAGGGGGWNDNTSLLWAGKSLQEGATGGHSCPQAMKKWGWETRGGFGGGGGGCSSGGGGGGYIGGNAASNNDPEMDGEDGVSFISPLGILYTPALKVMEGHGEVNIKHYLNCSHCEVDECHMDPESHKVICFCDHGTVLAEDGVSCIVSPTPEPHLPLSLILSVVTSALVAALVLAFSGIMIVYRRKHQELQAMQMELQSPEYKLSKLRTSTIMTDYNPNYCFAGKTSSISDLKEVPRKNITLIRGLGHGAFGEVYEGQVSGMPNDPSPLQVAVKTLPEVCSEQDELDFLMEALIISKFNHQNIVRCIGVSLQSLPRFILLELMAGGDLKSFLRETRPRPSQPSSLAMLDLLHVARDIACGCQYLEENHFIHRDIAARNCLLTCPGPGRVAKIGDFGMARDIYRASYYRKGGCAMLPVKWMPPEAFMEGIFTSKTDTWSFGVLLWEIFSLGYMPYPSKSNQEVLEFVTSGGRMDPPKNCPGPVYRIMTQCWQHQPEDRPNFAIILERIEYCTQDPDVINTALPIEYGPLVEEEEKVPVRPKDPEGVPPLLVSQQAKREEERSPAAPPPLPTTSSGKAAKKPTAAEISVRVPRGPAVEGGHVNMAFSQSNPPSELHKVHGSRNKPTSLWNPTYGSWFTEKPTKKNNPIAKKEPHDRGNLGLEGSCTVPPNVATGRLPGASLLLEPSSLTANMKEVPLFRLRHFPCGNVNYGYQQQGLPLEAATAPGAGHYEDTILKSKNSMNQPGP
The target in data set [7] is Mitogen-activated protein kinase 1 (Homo sapiens) (UniProt P28482). Nature of the data set: Inhibition of ERK2 (unknown origin) at 1 uM relative to control.
Mitogen-activated protein kinase 1 (Homo sapiens), sequence (P28482 whole entry): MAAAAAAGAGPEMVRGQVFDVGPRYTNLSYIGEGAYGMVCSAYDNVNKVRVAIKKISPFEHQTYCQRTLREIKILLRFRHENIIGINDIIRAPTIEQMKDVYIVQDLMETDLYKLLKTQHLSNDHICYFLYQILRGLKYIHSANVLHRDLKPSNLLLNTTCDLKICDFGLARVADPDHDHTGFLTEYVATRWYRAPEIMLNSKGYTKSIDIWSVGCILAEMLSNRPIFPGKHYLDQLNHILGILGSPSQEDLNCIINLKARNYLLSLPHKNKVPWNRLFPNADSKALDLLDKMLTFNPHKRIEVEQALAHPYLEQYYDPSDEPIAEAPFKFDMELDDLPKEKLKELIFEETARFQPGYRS
A short description of data set [8]: Reductive activation in PBS at pH 7.4 assessed as 2-amino-3-[2-amino-5-[amino(carboxy)methyl]sulfanyl-1-[2-[2-[2-methoxy-5-[[4-(1-methylindol-3-yl)pyrimidin-2-yl]amino]phenoxy]ethoxy]ethyl]imidazol-4-yl]sulfanyl-propanoic acid metabolite formation at 1 uM incubated for 30 mins in presence of cysteine, NADPH and nitroreductase under hypoxia condition by MS/MS analysis. Type of data set: ADME. As to conditions: buffer, pH 7.4, 0.5 h.

A short description of data set [9]: Reductive activation in PBS at pH 7.4 assessed as A14-1 metabolite formation at 1 uM incubated for 30 mins in presence of cysteine, NADPH and nitroreductase under normoxia condition by MS/MS analysis. Type of data set: ADME. As to conditions: buffer, pH 7.4, 0.5 h.
The target in data set [10] is 3-phosphoinositide-dependent protein kinase 1 (Homo sapiens) (UniProt O15530). As to the kind of experiment: Inhibition of PDK1 (unknown origin) at 1 uM relative to control.
3-phosphoinositide-dependent protein kinase 1 (Homo sapiens), sequence (O15530 whole entry, looked up): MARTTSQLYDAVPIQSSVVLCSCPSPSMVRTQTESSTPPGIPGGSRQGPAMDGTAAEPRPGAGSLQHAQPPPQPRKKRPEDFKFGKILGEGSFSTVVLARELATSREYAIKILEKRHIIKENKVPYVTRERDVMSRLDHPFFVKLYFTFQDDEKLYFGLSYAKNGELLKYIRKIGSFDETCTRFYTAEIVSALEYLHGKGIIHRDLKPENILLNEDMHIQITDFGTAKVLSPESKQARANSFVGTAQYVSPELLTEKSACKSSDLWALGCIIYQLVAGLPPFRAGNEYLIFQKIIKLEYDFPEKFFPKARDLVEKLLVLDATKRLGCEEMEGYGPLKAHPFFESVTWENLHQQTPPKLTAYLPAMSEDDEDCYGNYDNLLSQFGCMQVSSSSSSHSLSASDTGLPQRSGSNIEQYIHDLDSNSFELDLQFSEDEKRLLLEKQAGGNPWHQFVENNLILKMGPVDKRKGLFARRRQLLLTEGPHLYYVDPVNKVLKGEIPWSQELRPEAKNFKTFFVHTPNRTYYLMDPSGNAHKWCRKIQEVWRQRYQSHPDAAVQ

The structures appear in SMILES notation.

High affinity nerve growth factor receptor (Homo sapiens), sequence (P04629 33-796 limits assumed): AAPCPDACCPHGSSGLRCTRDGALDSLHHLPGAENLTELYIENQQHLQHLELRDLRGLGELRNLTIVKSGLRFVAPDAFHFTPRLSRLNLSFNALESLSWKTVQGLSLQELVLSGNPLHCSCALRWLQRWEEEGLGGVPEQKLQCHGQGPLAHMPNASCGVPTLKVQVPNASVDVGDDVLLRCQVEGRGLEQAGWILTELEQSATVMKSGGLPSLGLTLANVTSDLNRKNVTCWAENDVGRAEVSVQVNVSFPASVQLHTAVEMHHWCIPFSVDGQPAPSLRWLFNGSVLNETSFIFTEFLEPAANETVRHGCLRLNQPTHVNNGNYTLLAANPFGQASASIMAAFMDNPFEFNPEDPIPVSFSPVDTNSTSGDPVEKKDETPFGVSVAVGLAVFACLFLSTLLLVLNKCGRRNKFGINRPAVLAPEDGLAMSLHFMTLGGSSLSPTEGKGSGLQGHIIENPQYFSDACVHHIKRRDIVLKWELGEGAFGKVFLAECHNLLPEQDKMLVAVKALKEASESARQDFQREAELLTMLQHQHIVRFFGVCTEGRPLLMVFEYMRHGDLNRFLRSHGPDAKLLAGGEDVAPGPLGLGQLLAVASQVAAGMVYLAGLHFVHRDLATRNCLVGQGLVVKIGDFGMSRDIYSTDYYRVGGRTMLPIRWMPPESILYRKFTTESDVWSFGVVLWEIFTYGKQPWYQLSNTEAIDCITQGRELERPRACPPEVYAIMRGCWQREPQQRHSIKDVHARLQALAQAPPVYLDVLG
Proto-oncogene tyrosine-protein kinase Src (Homo sapiens), sequence (P12931 2-536 limits assumed): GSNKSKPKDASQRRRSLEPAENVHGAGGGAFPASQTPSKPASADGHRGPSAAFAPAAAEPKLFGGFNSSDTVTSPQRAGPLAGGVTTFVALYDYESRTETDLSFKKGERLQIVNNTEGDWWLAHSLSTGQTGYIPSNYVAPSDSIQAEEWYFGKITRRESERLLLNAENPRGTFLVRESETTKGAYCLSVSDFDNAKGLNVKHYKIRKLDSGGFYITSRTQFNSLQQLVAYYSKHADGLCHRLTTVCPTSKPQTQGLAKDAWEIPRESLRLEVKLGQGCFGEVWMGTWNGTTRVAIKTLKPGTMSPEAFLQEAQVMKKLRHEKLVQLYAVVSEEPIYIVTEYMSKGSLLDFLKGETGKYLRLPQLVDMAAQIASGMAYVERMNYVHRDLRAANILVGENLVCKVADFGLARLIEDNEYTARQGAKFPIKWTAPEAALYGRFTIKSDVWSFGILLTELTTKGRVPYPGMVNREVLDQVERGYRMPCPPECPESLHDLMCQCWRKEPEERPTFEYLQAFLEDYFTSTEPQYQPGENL

The IC50 is the concentration that gives 50% inhibition. The inhibition is the change of the read-out against control, counted positive when it falls. In the case of `COc1ccc(Nc2nccc(-c3cn(C)c4ccccc34)n2)cc1OCCOCCn1ccnc1[N+](=O)[O-]`, the 50% inhibitory concentration (IC50) in the data set with NCI-H1975 was 4.66 nM; in the data set on HCC827, 5.26 nM. Further, in data set [1], the “Ratio IC50” value was 5.63. Besides, the inhibition in data set [2] was -7.07%; in [3], 17%; in data set [4] it was 29%; in data set [5], 36.5%; in [6], 42.7%; in [7], 32.4%. The inhibition in [10] amounted to 8%. The Drug metabolism result in [8] was “Metabolite_Detected”; in data set [9] it was “Metabolite_Notdetected”.

Source of the values: ChEMBL document CHEMBL5325467, “Discovery of novel hypoxia-activated, nitroimidazole constructed multi-target kinase inhibitors on the basis of AZD9291 for the treatment of human lung cancer” (Bioorg Med Chem, 2023).
